Reference: the kinase profiling compilation of Christmann-Franck et al. (2016)

Assays:
YES1 (human) = YES1 (human) (UniProt P07947)
CSNK1D (human) = CSNK1D (human) (UniProt P48730)
MAPK1 (human) = MAPK1 (human) (UniProt P28482)
IKBKB (human) = IKBKB (human) (UniProt O14920)
HIPK2 (human) = HIPK2 (human) (UniProt Q9H2X6)
LCK (mouse) = conditions: accession and sequence are those of the human protein
DYRK2 (human) = DYRK2 (human) (UniProt Q92630)
MAPK14 (human) = MAPK14 (human) (UniProt Q16539)
INSRR (human) = INSRR (human) (UniProt P14616)
EEF2K (human) = EEF2K (human) (UniProt O00418)
[1] = tested on: RPS6KB1 (human), P23443 [T412E]
FLT1 (human) = FLT1 (human) (UniProt P17948)
PIM3 (human) = PIM3 (human) (UniProt Q86V86)
SRC (human) = SRC (human) (UniProt P12931)
MKNK1 (human) = MKNK1 (human) (UniProt Q9BUB5)
MAPK15 (human) = MAPK15 (human) (UniProt Q8TD08)
DYRK3 (human) = DYRK3 (human) (UniProt O43781)
PAK4 (human) = PAK4 (human) (UniProt O96013)
SRPK1 (human) = SRPK1 (human) (UniProt Q96SB4)
CDK2 CCNA2 (human) = CDK2 CCNA2 (human) (UniProt P20248+P24941)
BRSK2 (human) = BRSK2 (human) (UniProt Q8IWQ3)
CaMK1 (human) = CaMK1 (human) (UniProt Q14012)
RPS6KA3 KD1 KD2 (human) = RPS6KA3 KD1 KD2 (human) (UniProt P51812)
MAPK11 (human) = MAPK11 (human) (UniProt Q15759)
PAK6 (human) = PAK6 (human) (UniProt Q9NQU5)
IKBKE (human) = IKBKE (human) (UniProt Q14164)
FGFR1 (human) = FGFR1 (human) (UniProt P11362)
MELK (human) = MELK (human) (UniProt Q14680)
PAK7 (human) = PAK7 (human) (UniProt Q9P286)
RPS6KA1 KD1 KD2 (human) = RPS6KA1 KD1 KD2 (human) (UniProt Q15418)
CHEK2 (human) = CHEK2 (human) (UniProt O96017)
PIM2 (human) = PIM2 (human) (UniProt Q9P1W9)
MAPK3 (human) = MAPK3 (human) (UniProt P27361)
PHKG1 (human) = PHKG1 (human) (UniProt Q16816)

INSRR (human), sequence (P14616 whole entry, looked up): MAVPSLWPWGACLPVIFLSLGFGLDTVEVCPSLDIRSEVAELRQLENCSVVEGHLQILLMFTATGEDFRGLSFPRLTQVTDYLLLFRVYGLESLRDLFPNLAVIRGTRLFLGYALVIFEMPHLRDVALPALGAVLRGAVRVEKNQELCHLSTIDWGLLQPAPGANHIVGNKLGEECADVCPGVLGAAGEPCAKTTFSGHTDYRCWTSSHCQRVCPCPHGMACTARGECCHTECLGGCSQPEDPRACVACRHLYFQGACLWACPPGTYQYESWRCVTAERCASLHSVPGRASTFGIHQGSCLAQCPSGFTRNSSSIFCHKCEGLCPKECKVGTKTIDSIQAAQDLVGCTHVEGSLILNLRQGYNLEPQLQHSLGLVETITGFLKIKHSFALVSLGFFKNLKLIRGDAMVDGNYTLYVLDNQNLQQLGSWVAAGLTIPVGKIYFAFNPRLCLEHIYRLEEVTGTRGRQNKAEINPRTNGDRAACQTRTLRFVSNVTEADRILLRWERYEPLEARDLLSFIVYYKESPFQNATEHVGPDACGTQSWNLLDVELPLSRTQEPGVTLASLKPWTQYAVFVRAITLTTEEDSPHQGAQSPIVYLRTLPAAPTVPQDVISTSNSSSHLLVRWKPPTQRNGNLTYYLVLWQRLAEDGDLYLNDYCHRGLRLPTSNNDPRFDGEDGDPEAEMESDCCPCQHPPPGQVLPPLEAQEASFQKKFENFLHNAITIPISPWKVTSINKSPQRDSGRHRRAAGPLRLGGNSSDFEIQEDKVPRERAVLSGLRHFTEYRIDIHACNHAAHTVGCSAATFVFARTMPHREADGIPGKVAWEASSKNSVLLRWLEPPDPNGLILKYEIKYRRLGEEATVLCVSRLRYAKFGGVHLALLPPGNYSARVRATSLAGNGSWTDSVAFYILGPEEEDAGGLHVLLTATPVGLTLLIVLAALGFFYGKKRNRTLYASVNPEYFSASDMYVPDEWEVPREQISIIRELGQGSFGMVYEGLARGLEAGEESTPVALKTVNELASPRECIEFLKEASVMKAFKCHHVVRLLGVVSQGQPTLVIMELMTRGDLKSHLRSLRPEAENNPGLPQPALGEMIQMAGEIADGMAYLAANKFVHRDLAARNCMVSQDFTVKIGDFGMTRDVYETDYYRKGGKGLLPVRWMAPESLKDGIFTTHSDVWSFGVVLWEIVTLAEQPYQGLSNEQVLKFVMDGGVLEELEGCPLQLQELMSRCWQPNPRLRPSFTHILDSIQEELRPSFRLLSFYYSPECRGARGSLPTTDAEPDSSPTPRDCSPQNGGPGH
HIPK2 (human), sequence (Q9H2X6 whole entry, looked up): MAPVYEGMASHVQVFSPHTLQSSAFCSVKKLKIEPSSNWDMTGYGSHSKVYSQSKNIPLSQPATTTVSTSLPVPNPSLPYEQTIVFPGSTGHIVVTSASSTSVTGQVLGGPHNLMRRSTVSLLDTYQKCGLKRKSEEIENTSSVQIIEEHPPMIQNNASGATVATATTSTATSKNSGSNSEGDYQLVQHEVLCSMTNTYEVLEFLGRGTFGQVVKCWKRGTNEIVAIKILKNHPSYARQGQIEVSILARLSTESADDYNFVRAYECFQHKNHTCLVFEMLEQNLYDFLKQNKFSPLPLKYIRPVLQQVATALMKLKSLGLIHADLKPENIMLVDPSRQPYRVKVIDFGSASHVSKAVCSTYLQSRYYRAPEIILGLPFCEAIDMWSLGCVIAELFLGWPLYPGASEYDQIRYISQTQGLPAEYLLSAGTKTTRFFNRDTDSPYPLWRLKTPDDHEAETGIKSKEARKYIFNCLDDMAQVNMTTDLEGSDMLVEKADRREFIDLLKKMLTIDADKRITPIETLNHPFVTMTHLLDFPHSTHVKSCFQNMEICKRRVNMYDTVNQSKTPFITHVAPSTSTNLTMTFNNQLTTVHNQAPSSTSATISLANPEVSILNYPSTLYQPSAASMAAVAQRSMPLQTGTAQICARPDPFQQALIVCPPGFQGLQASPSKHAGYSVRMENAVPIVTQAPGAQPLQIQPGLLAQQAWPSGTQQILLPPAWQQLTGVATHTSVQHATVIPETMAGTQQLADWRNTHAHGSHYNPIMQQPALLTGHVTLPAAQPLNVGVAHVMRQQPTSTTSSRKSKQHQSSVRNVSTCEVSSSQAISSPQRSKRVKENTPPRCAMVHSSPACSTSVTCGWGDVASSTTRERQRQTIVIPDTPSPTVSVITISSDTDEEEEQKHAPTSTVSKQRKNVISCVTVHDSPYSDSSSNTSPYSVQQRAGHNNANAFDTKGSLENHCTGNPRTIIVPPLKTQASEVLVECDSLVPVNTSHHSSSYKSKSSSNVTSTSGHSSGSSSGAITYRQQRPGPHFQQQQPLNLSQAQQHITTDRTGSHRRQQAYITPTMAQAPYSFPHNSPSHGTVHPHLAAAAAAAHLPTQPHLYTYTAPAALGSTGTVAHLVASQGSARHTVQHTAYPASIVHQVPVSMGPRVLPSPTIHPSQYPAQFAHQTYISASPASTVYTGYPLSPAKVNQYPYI
PAK6 (human), sequence (Q9NQU5 whole entry, looked up): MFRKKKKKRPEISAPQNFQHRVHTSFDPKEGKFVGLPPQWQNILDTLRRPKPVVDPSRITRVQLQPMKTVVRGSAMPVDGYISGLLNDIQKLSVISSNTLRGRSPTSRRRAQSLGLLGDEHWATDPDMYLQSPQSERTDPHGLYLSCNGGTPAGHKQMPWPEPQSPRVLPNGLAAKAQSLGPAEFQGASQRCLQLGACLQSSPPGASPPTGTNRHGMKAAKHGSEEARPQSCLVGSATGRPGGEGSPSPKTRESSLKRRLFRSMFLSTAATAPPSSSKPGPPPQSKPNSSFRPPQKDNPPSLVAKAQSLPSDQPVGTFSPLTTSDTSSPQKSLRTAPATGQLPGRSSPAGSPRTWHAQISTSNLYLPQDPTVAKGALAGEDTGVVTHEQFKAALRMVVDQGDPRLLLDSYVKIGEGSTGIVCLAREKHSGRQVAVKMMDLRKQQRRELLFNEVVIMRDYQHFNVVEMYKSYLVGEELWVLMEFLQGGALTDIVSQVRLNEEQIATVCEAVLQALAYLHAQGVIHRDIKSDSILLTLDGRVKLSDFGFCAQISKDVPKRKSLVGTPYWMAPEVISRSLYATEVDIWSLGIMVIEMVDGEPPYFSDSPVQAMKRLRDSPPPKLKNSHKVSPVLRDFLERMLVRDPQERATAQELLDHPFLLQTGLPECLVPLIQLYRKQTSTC
MAPK1 (human), sequence (P28482 whole entry, looked up): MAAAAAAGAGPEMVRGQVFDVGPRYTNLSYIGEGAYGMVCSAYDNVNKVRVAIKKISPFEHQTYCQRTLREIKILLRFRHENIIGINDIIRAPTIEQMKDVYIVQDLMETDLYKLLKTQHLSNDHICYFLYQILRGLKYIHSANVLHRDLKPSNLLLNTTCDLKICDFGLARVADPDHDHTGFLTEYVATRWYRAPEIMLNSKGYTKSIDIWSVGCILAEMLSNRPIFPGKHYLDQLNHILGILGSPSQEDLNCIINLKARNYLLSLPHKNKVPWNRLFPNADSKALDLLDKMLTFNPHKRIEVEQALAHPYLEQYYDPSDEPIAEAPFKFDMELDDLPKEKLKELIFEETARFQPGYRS
PIM2 (human), sequence (Q9P1W9 whole entry, looked up): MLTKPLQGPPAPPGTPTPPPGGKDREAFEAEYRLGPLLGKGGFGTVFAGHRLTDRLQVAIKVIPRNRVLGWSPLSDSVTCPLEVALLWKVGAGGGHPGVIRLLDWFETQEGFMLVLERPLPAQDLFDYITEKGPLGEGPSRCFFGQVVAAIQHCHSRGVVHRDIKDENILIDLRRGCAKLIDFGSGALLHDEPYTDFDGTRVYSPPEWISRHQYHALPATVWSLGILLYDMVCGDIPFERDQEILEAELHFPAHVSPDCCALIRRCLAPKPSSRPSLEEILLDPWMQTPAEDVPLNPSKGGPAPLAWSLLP
EEF2K (human), sequence (O00418 whole entry, looked up): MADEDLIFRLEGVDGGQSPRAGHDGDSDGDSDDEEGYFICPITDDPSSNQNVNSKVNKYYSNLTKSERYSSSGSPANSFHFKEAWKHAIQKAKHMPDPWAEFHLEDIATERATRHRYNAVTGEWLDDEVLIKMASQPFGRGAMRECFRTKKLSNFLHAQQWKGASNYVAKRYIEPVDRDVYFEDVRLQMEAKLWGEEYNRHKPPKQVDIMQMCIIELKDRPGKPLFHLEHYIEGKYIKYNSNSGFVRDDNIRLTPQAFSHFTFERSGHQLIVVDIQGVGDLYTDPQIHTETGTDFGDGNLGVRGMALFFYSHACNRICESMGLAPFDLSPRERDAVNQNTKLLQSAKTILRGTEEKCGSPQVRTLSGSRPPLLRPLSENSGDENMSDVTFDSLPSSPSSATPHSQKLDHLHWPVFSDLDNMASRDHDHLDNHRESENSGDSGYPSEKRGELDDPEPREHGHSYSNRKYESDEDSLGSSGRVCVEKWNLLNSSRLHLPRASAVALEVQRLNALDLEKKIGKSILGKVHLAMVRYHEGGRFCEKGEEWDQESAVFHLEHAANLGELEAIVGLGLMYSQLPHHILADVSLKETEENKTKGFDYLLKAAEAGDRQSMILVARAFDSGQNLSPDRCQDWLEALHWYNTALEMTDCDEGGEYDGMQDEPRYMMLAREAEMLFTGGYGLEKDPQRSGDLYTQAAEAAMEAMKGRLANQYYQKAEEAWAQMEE
MAPK3 (human), sequence (P27361 whole entry, looked up): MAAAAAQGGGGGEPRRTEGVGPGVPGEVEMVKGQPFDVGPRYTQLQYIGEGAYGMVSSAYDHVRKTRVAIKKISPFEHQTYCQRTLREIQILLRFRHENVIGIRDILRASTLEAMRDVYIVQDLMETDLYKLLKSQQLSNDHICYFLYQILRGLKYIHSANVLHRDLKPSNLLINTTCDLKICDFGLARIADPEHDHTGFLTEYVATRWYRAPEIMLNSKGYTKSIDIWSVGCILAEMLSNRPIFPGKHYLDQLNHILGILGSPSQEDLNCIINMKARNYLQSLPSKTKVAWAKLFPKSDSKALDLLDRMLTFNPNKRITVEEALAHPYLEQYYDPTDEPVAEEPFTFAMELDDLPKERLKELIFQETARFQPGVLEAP

`CCC(=O)N1CCN(c2ccc(-n3c(=O)ccc4cnc5ccc(-c6cnc7ccccc7c6)cc5c43)cc2C(F)(F)F)CC1` was tested, and the per cent of control (YES1 (human); compound 1.0 µM) was 113%, the per cent of control (YES1 (human); compound 10.0 µM) was 78% and the per cent of control (CSNK1D (human); compound 1.0 µM) was 93%. The per cent of control (CSNK1D (human); compound 10.0 µM) was 104%, the per cent of control (MAPK1 (human); compound 1.0 µM) was 102% and the per cent of control (MAPK1 (human); compound 10.0 µM) was 90%. It also gave a per cent of control (IKBKB (human); compound 1.0 µM) of 109%, a per cent of control (IKBKB (human); compound 10.0 µM) of 63% and a per cent of control (HIPK2 (human); compound 1.0 µM) of 96%. The per cent of control (HIPK2 (human); compound 10.0 µM) was 88%, the per cent of control (LCK (mouse); compound 1.0 µM) was 93% and the per cent of control (LCK (mouse); compound 10.0 µM) was 78%. For the same compound, the per cent of control (DYRK2 (human); compound 1.0 µM) was 99%, the per cent of control (DYRK2 (human); compound 10.0 µM) was 99% and the per cent of control (MAPK14 (human); compound 1.0 µM) was 95%. It also gave a per cent of control (MAPK14 (human); compound 10.0 µM) of 99%, a per cent of control (INSRR (human); compound 10.0 µM) of 73% and a per cent of control (EEF2K (human); compound 1.0 µM) of 118%. The per cent of control (EEF2K (human); compound 10.0 µM) was 111%, the per cent of control ([1]; compound 1.0 µM) was 97% and the per cent of control ([1]; compound 10.0 µM) was 81%. For the same compound, the per cent of control (FLT1 (human); compound 1.0 µM) was 108%, the per cent of control (FLT1 (human); compound 10.0 µM) was 84% and the per cent of control (PIM3 (human); compound 1.0 µM) was 85%. The per cent of control (PIM3 (human); compound 10.0 µM) was 30%, the per cent of control (SRC (human); compound 1.0 µM) was 60% and the per cent of control (SRC (human); compound 10.0 µM) was 52%. The per cent of control (MKNK1 (human); compound 1.0 µM) was 93%, the per cent of control (MKNK1 (human); compound 10.0 µM) was 96% and the per cent of control (MAPK15 (human); compound 1.0 µM) was 78%. For the same compound, the per cent of control (MAPK15 (human); compound 10.0 µM) was 46%, the per cent of control (DYRK3 (human); compound 1.0 µM) was 88% and the per cent of control (DYRK3 (human); compound 10.0 µM) was 52%. For the same compound, the per cent of control (PAK4 (human); compound 1.0 µM) was 110%, the per cent of control (PAK4 (human); compound 10.0 µM) was 66% and the per cent of control (SRPK1 (human); compound 1.0 µM) was 107%. It also gave a per cent of control (SRPK1 (human); compound 10.0 µM) of 110%, a per cent of control (CDK2 CCNA2 (human); compound 1.0 µM) of 108% and a per cent of control (CDK2 CCNA2 (human); compound 10.0 µM) of 77%. The per cent of control (BRSK2 (human); compound 1.0 µM) was 102%, the per cent of control (BRSK2 (human); compound 10.0 µM) was 104% and the per cent of control (CaMK1 (human); compound 1.0 µM) was 104%. The per cent of control (CaMK1 (human); compound 10.0 µM) was 77%, the per cent of control (RPS6KA3 KD1 KD2 (human); compound 1.0 µM) was 96% and the per cent of control (RPS6KA3 KD1 KD2 (human); compound 10.0 µM) was 81%. The per cent of control (MAPK11 (human); compound 1.0 µM) was 83%, the per cent of control (MAPK11 (human); compound 10.0 µM) was 78% and the per cent of control (PAK6 (human); compound 1.0 µM) was 110%. It also gave a per cent of control (PAK6 (human); compound 10.0 µM) of 80%, a per cent of control (IKBKE (human); compound 1.0 µM) of 96% and a per cent of control (IKBKE (human); compound 10.0 µM) of 85%. It also gave a per cent of control (FGFR1 (human); compound 1.0 µM) of 110%, a per cent of control (FGFR1 (human); compound 10.0 µM) of 79% and a per cent of control (MELK (human); compound 1.0 µM) of 63%. It also gave a per cent of control (MELK (human); compound 10.0 µM) of 17%, a per cent of control (PAK7 (human); compound 10.0 µM) of 61% and a per cent of control (RPS6KA1 KD1 KD2 (human); compound 1.0 µM) of 93%. It also gave a per cent of control (RPS6KA1 KD1 KD2 (human); compound 10.0 µM) of 71%, a per cent of control (CHEK2 (human); compound 1.0 µM) of 90% and a per cent of control (CHEK2 (human); compound 10.0 µM) of 83%. For the same compound, the per cent of control (PIM2 (human); compound 1.0 µM) was 86%, the per cent of control (PIM2 (human); compound 10.0 µM) was 96% and the per cent of control (MAPK3 (human); compound 1.0 µM) was 99%. It also gave a per cent of control (MAPK3 (human); compound 10.0 µM) of 96%, a per cent of control (PHKG1 (human); compound 1.0 µM) of 110% and a per cent of control (PHKG1 (human); compound 10.0 µM) of 99%.
With `COc1ccc(-c2ccc3c(N4CCOCC4)nc(N4C[C@@H](C)O[C@@H](C)C4)nc3n2)cc1CO` the per cent of control (YES1 (human); compound 1.0 µM) was 94%, the per cent of control (YES1 (human); compound 10.0 µM) was 90% and the per cent of control (CSNK1D (human); compound 1.0 µM) was 112%. For the same compound, the per cent of control (CSNK1D (human); compound 10.0 µM) was 109%, the per cent of control (MAPK1 (human); compound 1.0 µM) was 102% and the per cent of control (MAPK1 (human); compound 10.0 µM) was 92%. For the same compound, the per cent of control (IKBKB (human); compound 1.0 µM) was 104%, the per cent of control (IKBKB (human); compound 10.0 µM) was 89% and the per cent of control (HIPK2 (human); compound 1.0 µM) was 89%. The per cent of control (HIPK2 (human); compound 10.0 µM) was 89%, the per cent of control (LCK (mouse); compound 1.0 µM) was 69% and the per cent of control (LCK (mouse); compound 10.0 µM) was 104%. It also gave a per cent of control (DYRK2 (human); compound 1.0 µM) of 92%, a per cent of control (DYRK2 (human); compound 10.0 µM) of 96% and a per cent of control (MAPK14 (human); compound 1.0 µM) of 101%. The per cent of control (MAPK14 (human); compound 10.0 µM) was 96%, the per cent of control (INSRR (human); compound 1.0 µM) was 105% and the per cent of control (INSRR (human); compound 10.0 µM) was 71%. It also gave a per cent of control (EEF2K (human); compound 1.0 µM) of 88%, a per cent of control (EEF2K (human); compound 10.0 µM) of 108% and a per cent of control ([1]; compound 1.0 µM) of 104%. It also gave a per cent of control ([1]; compound 10.0 µM) of 98%, a per cent of control (FLT1 (human); compound 1.0 µM) of 92% and a per cent of control (FLT1 (human); compound 10.0 µM) of 92%. The per cent of control (PIM3 (human); compound 1.0 µM) was 114%, the per cent of control (PIM3 (human); compound 10.0 µM) was 75% and the per cent of control (SRC (human); compound 10.0 µM) was 86%. It also gave a per cent of control (MKNK1 (human); compound 1.0 µM) of 111%, a per cent of control (MKNK1 (human); compound 10.0 µM) of 75% and a per cent of control (MAPK15 (human); compound 1.0 µM) of 88%. The per cent of control (MAPK15 (human); compound 10.0 µM) was 92%, the per cent of control (DYRK3 (human); compound 1.0 µM) was 88% and the per cent of control (DYRK3 (human); compound 10.0 µM) was 84%. For the same compound, the per cent of control (PAK4 (human); compound 1.0 µM) was 11%, the per cent of control (PAK4 (human); compound 10.0 µM) was 75% and the per cent of control (SRPK1 (human); compound 1.0 µM) was 101%. The per cent of control (SRPK1 (human); compound 10.0 µM) was 94%, the per cent of control (CDK2 CCNA2 (human); compound 1.0 µM) was 89% and the per cent of control (CDK2 CCNA2 (human); compound 10.0 µM) was 90%. For the same compound, the per cent of control (BRSK2 (human); compound 1.0 µM) was 90%, the per cent of control (BRSK2 (human); compound 10.0 µM) was 72% and the per cent of control (CaMK1 (human); compound 1.0 µM) was 96%. The per cent of control (CaMK1 (human); compound 10.0 µM) was 101%, the per cent of control (RPS6KA3 KD1 KD2 (human); compound 1.0 µM) was 103% and the per cent of control (RPS6KA3 KD1 KD2 (human); compound 10.0 µM) was 104%. The per cent of control (MAPK11 (human); compound 1.0 µM) was 106%, the per cent of control (MAPK11 (human); compound 10.0 µM) was 83% and the per cent of control (PAK6 (human); compound 1.0 µM) was 75%. The per cent of control (PAK6 (human); compound 10.0 µM) was 100%, the per cent of control (IKBKE (human); compound 1.0 µM) was 99% and the per cent of control (IKBKE (human); compound 10.0 µM) was 100%. It also gave a per cent of control (FGFR1 (human); compound 1.0 µM) of 102%, a per cent of control (FGFR1 (human); compound 10.0 µM) of 87% and a per cent of control (MELK (human); compound 1.0 µM) of 91%. It also gave a per cent of control (MELK (human); compound 10.0 µM) of 72%, a per cent of control (PAK7 (human); compound 1.0 µM) of 101% and a per cent of control (PAK7 (human); compound 10.0 µM) of 81%. The per cent of control (RPS6KA1 KD1 KD2 (human); compound 1.0 µM) was 100%, the per cent of control (RPS6KA1 KD1 KD2 (human); compound 10.0 µM) was 86% and the per cent of control (PIM2 (human); compound 1.0 µM) was 86%. For the same compound, the per cent of control (PIM2 (human); compound 10.0 µM) was 78%, the per cent of control (MAPK3 (human); compound 1.0 µM) was 102% and the per cent of control (MAPK3 (human); compound 10.0 µM) was 87%. The per cent of control (PHKG1 (human); compound 1.0 µM) was 89% and the per cent of control (PHKG1 (human); compound 10.0 µM) was 116%.
